Measured values from patent US20150344444A1, “BET-PROTEIN-INHIBITING DIHYDROXYQUINOXALINONES” (BAYER PHARMA AKTIENGESELLSCHAFT, priority 2012, published 2015).
pIC50: −log10 of the molar value.

Legend:
[1] = target: T1, BRD4 Bromo Domain 2 [BRD4(2)] (Homo sapiens, UniProt O60885); assay: BRD4(2)/acetylated peptide H4 binding assay (TR-FRET); conditions: inhibition of interaction between His6-tagged BRD4(2) (amino acids 357-445) and acetylated histone H4 peptide
T1 construct: N-terminally His6-tagged BRD4(2) (amino acids 357-445); made in house; host or cells: E. coli
Source text: Protein-Protein Interaction Assay: BRD4/Acetylated Peptide H4 Binding Assay
2. Assay Description for BRD4 Bromo Domain 2 [BRD4(2)]
To assess the BRD4(2) binding strength of the substances described in this application, the ability thereof to inhibit the interaction between BRD4(2) and acetylated histone H4 in a dose-dependent manner was quantified.
For this purpose, a time-resolved fluorescence resonance energy transfer (TR-FRET) assay was used, which measures the binding between N-terminally His6-tagged BRD4(2) (amino acids 357-445) and a synthetic acetylated histone H4 (Ac-H4) peptide with sequence SGRGK(Ac)GGK(Ac)GLGK(Ac)GGAK(Ac)RHRKVLRDNGSGSK-biotin. The recombinant BRD4(2) protein produced in house according to Filippakopoulos et al., Cell, 2012, 149:214-231 was expressed in E. coli and purified by means of (Ni-NTA) affinity and (Sephadex G-75) size exclusion chromatography. The Ac-H4 peptide can be purchased, for example, from Biosyntan (Berlin, Germany).
In the assay, typically 11 different concentrations of each substance (0.1 nM, 0.33 nM, 1.1 nM, 3.8 nM, 13 nM, 44 nM, 0.15 μM, 0.51 μM, 1.7 μM, 5.9 μM and 20 μM) were analysed as duplicates on the same microtitre plate. For this purpose, 100-fold concentrated solutions in DMSO were prepared by serial dilutions (1:3.4) of a 2 mM stock solution into a clear, 384-well microtitre plate (Greiner Bio-One, Frickenhausen, Germany). From this, 50 nl were transferred into a black test plate (Greiner Bio-One, Frickenhausen, Germany). The test was started by the addition of 2 μl of a 2.5-fold concentrated BRD4(2) solution (final concentration typically 100 nM in the 5 μl of reaction volume) in aqueous assay buffer [50 mM HEPES pH 7.5, 50 mM sodium chloride (NaCl); 50 mM potassium fluoride (KF); 0.25 mM CHAPS and 0.05% serum albumin (BSA)] to the substances in the test plate. This was followed by a 10-minute incubation step at 22° C. for the pre-equilibration of putative complexes between BRD4(2) and the substances.
The mixture was then incubated in the dark at 22° C. for one hour and then at 4° C. for at least 3 hours and for no longer than overnight. The formation of BRD4(2)/Ac-H4 complexes was determined by the measurement of the resonance energy transfer from the streptavidin-Eu chelate to the anti-6His-XL665 antibody present in the reaction. For this purpose, the fluorescence emission was measured at 620 nm and 665 nm after excitation at 330-350 nm in a TR-FRET measuring instrument, for example a Rubystar or Pherastar (both from BMG Lab Technologies, Offenburg, Germany) or a Viewlux (Perkin-Elmer). The ratio of the emissions at 665 nm and at 622 nm was taken as an indicator of the amount of BRD4(2)/Ac-H4 complexes formed.
The data (ratios) obtained were normalized, with 0% inhibition corresponding to the mean from the measurements for a set of controls (typically 32 data points) in which all the reagents were present. In these, in place of test substances, 50 nl of DMSO (100%) were used Inhibition of 100% corresponded to the mean from the measurements for a set of controls (typically 32 data points) in which all the reagents except BRD4(2) were present. The IC50 was determined by regression analysis based on a 4-parameter equation (minimum, maximum, IC50, Hill; Y=max+(min−max)/(1+(X/IC50)Hill)).

[2] = test system: B16F10 cells; assay: B16F10 cell proliferation assay (alamarBlue); assay type: cell-based; conditions: B16-F10; inhibition of cell proliferation, 96 hours, mouse melanoma cell line
Protocol: In accordance with the invention, the ability of the substances to inhibit cell proliferation was determined Cell viability was determined by means of the alamarBlue® reagent (Invitrogen) in a Victor X3 Multilabel Reader (Perkin Elmer). The excitation wavelength was 530 nm and the emission wavelength […].
The B16F10 cells (ATCC, CRL-6475) were sown at a concentration of 300-500 cells/well in 100 μl of growth medium (DMEM with phenol red, 10% FCS) on 96-well microtitre plates.
After overnight incubation at 37° C., the fluorescence values were determined (CI values). Then the plates were treated with various substance dilutions (1E-5 M, 3E-6 M, 1E-6 M, 3E-7 M, 1E-7 M, 3E-8 M, 1E-8 M) and incubated at 37° C. over 96 hours (MOLM-13, B16F10 cells) or 120 hours (MOLP-8 cells). Subsequently, the fluorescence values were determined (CO values). For the data analysis, the CI values were subtracted from the CO values and the results were compared between cells which had been treated with various dilutions of the substance or only with buffer solution. The IC50 values (substance concentration needed for 50% inhibition of cell proliferation) were calculated therefrom.
B16F10 mouse melanoma cell line

| pIC50 [1] | pIC50 [2] | Structure (SMILES) |
| --- | --- | --- |
| 7.37 | 6.59 | COc1ccc(CN2c3cc(Nc4ccc(C(=O)N5CC6(COC6)C5)cc4)ccc3N(C)C(=O)[C@H]2C)cc1 [Example 20, (3R)-4-(4-methoxybenzyl)-1,3-dimethyl-6-{[4-(2-oxa-6-azaspiro[3.3]hept-6-ylcarbonyl)phenyl]amino}-3,4-dihydroquinoxalin-2(1H)-one] |
| 7.27 | 6.39 | COc1ccc(CN2c3cc(Nc4ccc(C(=O)NCCN5CCN(C)CC5)cc4)ccc3N(C)C(=O)[C@H]2C)cc1 [Example 21, 4-{[(3R)-4-(4-methoxybenzyl)-1,3-dimethyl-2-oxo-1,2,3,4-tetrahydroquinoxalin-6-yl]amino}-N-[2-(4-methylpiperazin-1-yl)ethyl]benzamide] |
| 7.07 | 6.28 | COc1ccc(CN2c3cc(Nc4ccc(C(=O)N5CCN(C(C)C)CC5)cc4)ccc3N(C)C(=O)[C@H]2C)cc1 [Example 22, (3R)-4-(4-methoxybenzyl)-1,3-dimethyl-6-[(4-{[4-(propan-2-yl)piperazin-1-yl]carbonyl}phenyl)amino]-3,4-dihydroquinoxalin-2(1H)-one] |
| 6.82 | 5.71 | C[C@@H]1C(=O)N(C)c2ccc(Nc3ccc(C(=O)NC4CCN(C)CC4)cc3)cc2N1C1CCCCCC1 [Example 23, 4-{[(3R)-4-cycloheptyl-1,3-dimethyl-2-oxo-1,2,3,4-tetrahydroquinoxalin-6-yl]amino}-N-(1-methylpiperidin-4-yl)benzamide] |
| 6.99 | 6.14 | C[C@@H]1C(=O)N(C)c2ccc(Nc3ccc(C(=O)N4CCOCC4)cc3)cc2N1C1CCCCCC1 [Example 24, (3R)-4-cycloheptyl-1,3-dimethyl-6-{[4-(morpholin-4-ylcarbonyl)phenyl]amino}-3,4-dihydroquinoxalin-2(1H)-one] |
| 6.41 | 5.40 | C[C@@H]1C(=O)N(C)c2ccc(Nc3ccc(C(=O)NC4CCN(C)CC4)cc3)cc2N1C1CCOCC1 [Example 26, 4-{[(3R)-1,3-dimethyl-2-oxo-4-(tetrahydro-2H-pyran-4-yl)-1,2,3,4-tetrahydroquinoxalin-6-yl]amino}-N-(1-methylpiperidin-4-yl)benzamide] |
| 6.38 | 5.60 | C[C@@H]1C(=O)N(C)c2ccc(Nc3ccc(C(=O)N4CCOCC4)cc3)cc2N1C1CCOCC1 [Example 27, (3R)-1,3-dimethyl-6-{[4-(morpholin-4-ylcarbonyl)phenyl]amino}-4-(tetrahydro-2H-pyran-4-yl)-3,4-dihydroquinoxalin-2(1H)-one] |
| 6.29 | 5.55 | C[C@@H]1C(=O)N(C)c2ccc(Nc3ccc(C(=O)NCC4COC4)cc3)cc2N1C1CCOCC1 [Example 28, 4-{[(3R)-1,3-dimethyl-2-oxo-4-(tetrahydro-2H-pyran-4-yl)-1,2,3,4-tetrahydroquinoxalin-6-yl]amino}-N-(oxetan-3-ylmethyl)benzamide] |
| 6.80 | 5.57 | C[C@@H]1C(=O)N(C)c2ccc(Nc3ccc(C(=O)N4CC5(COC5)C4)cc3)cc2N1C1CCOCC1 [Example 29] |
| 6.45 | 5.57 | C[C@@H]1C(=O)N(C)c2ccc(Nc3ccc(C(=O)NCCN4CCN(C)CC4)cc3)cc2N1C1CCOCC1 [Example 30, 4-{[(3R)-1,3-dimethyl-2-oxo-4-(tetrahydro-2H-pyran-4-yl)-1,2,3,4-tetrahydroquinoxalin-6-yl]amino}-N-[2-(4-methylpiperazin-1-yl)ethyl]benzamide] |
| 6.90 | 5.49 | C[C@@H]1C(=O)N(C)c2ccc(Nc3ccc(C(=O)N4CC5(CCS5(=O)=O)C4)cc3)cc2N1C1CCOCC1 [Example 31, (3R)-6-({4-[(1,1-dioxido-1-thia-6-azaspiro[3.3]hept-6-yl)carbonyl]phenyl}amino)-1,3-dimethyl-4-(tetrahydro-2H-pyran-4-yl)-3,4-dihydroquinoxalin-2(1H)-one] |
| 6.32 | 5.19 | CC(=O)N1CCC(NC(=O)c2ccc(Nc3ccc4c(c3)N(C3CCOCC3)[C@H](C)C(=O)N4C)cc2)CC1 [Example 32, N-(1-acetylpiperidin-4-yl)-4-{[(3R)-1,3-dimethyl-2-oxo-4-(tetrahydro-2H-pyran-4-yl)-1,2,3,4-tetrahydroquinoxalin-6-yl]amino}benzamide] |
| 6.42 | 5.76 | CC(C)N1CCN(C(=O)c2ccc(Nc3ccc4c(c3)N(C3CCOCC3)[C@H](C)C(=O)N4C)cc2)CC1 [Example 33] |
| 6.62 | 5.45 | C[C@@H]1C(=O)N(C)c2ccc(Nc3ccc(C(=O)NC4CN(C)C4)cc3)cc2N1C1CCOCC1 [Example 34, 4-{[(3R)-1,3-dimethyl-2-oxo-4-(tetrahydro-2H-pyran-4-yl)-1,2,3,4-tetrahydroquinoxalin-6-yl]amino}-N-(1-methylazetidin-3-yl)benzamide] |
| 6.66 | 5.62 | C[C@@H]1C(=O)N(C)c2ccc(Nc3ccc(C(=O)NC4CC4)cc3)cc2N1C1CCOCC1 [Example 35, N-cyclopropyl-4-{[(3R)-1,3-dimethyl-2-oxo-4-(tetrahydro-2H-pyran-4-yl)-1,2,3,4-tetrahydroquinoxalin-6-yl]amino}benzamide] |
| 6.36 | 5.68 | COc1cc(C(=O)NC2CCN(C)CC2)ccc1Nc1ccc2c(c1)N(C1CCOCC1)[C@H](C)C(=O)N2C [Example 36, 4-{[(3R)-1,3-dimethyl-2-oxo-4-(tetrahydro-2H-pyran-4-yl)-1,2,3,4-tetrahydroquinoxalin-6-yl]amino}-3-methoxy-N-(1-methylpiperidin-4-yl)benzamide] |
| 6.39 | 5.82 | COc1cc(C(=O)NC2CCC(N3CCN(CC4CC4)CC3)CC2)ccc1Nc1ccc2c(c1)N(C1CCOCC1)[C@H](C)C(=O)N2C (stereo partly drawn) [Example 37, N-{4-[4-(cyclopropylmethyl)piperazin-1-yl]cyclohexyl}-4-{[(3R)-1,3-dimethyl-2-oxo-4-(tetrahydro-2H-pyran-4-yl)-1,2,3,4-tetrahydroquinoxalin-6-yl]amino}-3-methoxybenzamide] |
| 6.42 | 5.75 | COc1cc(C(=O)N2CCN(C)CC2)ccc1Nc1ccc2c(c1)N(C1CCOCC1)[C@H](C)C(=O)N2C [Example 38, (3R)-6-({2-methoxy-4-[(4-methylpiperazin-1-yl)carbonyl]phenyl}amino)-1,3-dimethyl-4-(tetrahydro-2H-pyran-4-yl)-3,4-dihydroquinoxalin-2(1H)-one] |
| 7.32 | 6.76 | COc1ccc(CN2c3cc(Nc4ccc(S(=O)(=O)N(C)C)cc4)ccc3N(C)C(=O)[C@H]2C)cc1 [Example 41, 4-{[(3R)-4-(4-methoxybenzyl)-1,3-dimethyl-2-oxo-1,2,3,4-tetrahydroquinoxalin-6-yl]amino}-N,N-dimethylbenzenesulphonamide] |
